Columns and labels:
[1] = tested on: C57BL/6 mice on HFD with established metabolic disease; assay: Treatment of established obesity-associated IR (switch to HFD 5-ASA after 8 weeks HFD); format: in vivo; settings: 8 weeks HFD then 8 weeks HFD 5-ASA (1500 mg/kg/day) vs HFD only
Description: (§1) Mice. Mice were fed either NCD (15 kcal % fat) or HFD (Research Diets, 60 kcal % fat, irradiated) starting at 6 weeks of age. All studies were performed under the approval of Animal User Protocols by the Animal Care Committee at the University Health Network. Mice were maintained in a pathogen-free, temperature-controlled environment on a 12-hour light and dark cycle. All mice used in comparative studies were male, age-matched, and litter mates where possible. […] We confirmed T cell-specific floxing of the PPARγ gene in Lck-Cre+ PPARγfl/fl mice by qPCR with a minimum of at least 90% reduction in PPARγ expression. […] We measured body weights, GTTs, ITTs, serum insulin, and fat cell diameter as previously described (Winer et al., 2009a). All GTTs were performed with a 1.5 g/kg glucose i.p. injection unless indicated otherwise.

PPARγ = target: T1, PPARγ (Mus musculus, UniProt P37238); assay: PPARγ activity assay in small bowel T cell nuclear extracts; format: in vivo; settings: purified small bowel T cells, mice fed HFD 5-ASA vs control HFD
T1 construct: from tissue; host or cells: purified small bowel T cells of HFD or HFD 5-ASA-fed mice (nuclear extracts)
T1 sequence (P37238 whole entry): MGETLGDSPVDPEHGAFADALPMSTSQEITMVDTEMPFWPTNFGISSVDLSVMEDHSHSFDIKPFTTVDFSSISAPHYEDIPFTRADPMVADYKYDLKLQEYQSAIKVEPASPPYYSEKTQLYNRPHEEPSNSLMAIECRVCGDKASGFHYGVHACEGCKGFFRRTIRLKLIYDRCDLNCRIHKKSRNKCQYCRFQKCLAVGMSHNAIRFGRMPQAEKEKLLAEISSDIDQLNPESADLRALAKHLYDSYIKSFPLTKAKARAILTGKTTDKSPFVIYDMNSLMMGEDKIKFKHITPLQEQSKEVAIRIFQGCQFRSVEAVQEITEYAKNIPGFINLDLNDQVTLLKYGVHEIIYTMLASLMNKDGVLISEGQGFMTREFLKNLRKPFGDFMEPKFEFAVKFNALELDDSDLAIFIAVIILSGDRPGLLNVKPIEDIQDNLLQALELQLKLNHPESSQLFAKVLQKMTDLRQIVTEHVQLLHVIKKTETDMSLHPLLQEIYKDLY
Excerpt: We measured PPARγ functional activity in T cell nuclear extracts using a PPARγ transcription factor binding assay following vendor's instructions (ThermoScientific and Cayman Chemical Company). This ELISA-based assay is precoated with dsDNA containing the peroxisome proliferator response element (PPRE). PPARγ in the isolated nuclear extracts bind to PPRE. As per vendor's recommendations, this assay is specific to PPARγ and not to other PPARs (i.e., α or δ).

HFD-fed C57BL/6 mice = assay: Metabolic studies, mice fed HFD or HFD 5-ASA from 6 weeks of age (preventative); format: in vivo
Description: as §1, with “otherwise. We fixed VAT, colons and small bowel ileums, from mice for 48 h in 10% buffered formalin before processing and hematoxylin/eosin staining. We enumerated crown-like structures (CLSs) in VAT by counting the number of adipocytes completely surrounded by immune cells identified on hematoxylin/eosin staining per 100× low power field. Analysis of histochemical stains was performed in a blinded fashion by two certified pathologists (S.W. and D.W.).” for “otherwise.”

[2] = tested on: small bowel dendritic cells; assay: DC-T cell co-culture, 5-ASA pre-treated small bowel dendritic cells with OT-II T cells; format: cell-based, mice; settings: DCs pre-treated with 0.1 or 1.0 mM 5-ASA 24 hours, OVA323-339 peptide, 48 hours
Description: To measure the effect of IFNγ on tight-junction gene expression, we treated MODE-K cells with recombinant mouse IFNγ (Biolegend). We purified bulk dendritic cells and T cells from murine small bowels and spleens using a negative selection DC or T cell isolation kit (Stem Cell Technologies). We plated T cells at 5×10^5 cells/well with plate-bound anti-CD3/CD28 (1 μg/ml, Biolegend). […] We collected supernatants for cytokine measurements after 72 hour incubation. […] After 24 hours, we washed the cells with PBS and co-cultured them (1×10^4 cells/well) with OVA323-339 peptide and OT-II splenic or small bowel T cells (5×10^4 cells/well) for 48 hours. Supernatants were collected at 48 hours for cytokine measurement.

[3] = HFD vs HFD 5-ASA 1500 mg/kg/day in diet, after 12-14 weeks
[4] = HFD vs HFD 5-ASA 1500 mg/kg/day, 14 weeks

In the case of `Nc1ccc(O)c(C(=O)O)c1` [5-ASA, 5-aminosalicylic acid], the body weight [1] is reported as “did not change”, the glucose tolerance [1] is reported as “significant improvements” and the insulin tolerance [1] is reported as “significant improvements”. For the same molecule, the PPARγ functional activity (PPARγ) was “increased”, the glucose tolerance (HFD-fed C57BL/6 mice; 5-ASA dose range 150 mg/kg/day up to 1500 mg/kg/day in mice) was “beneficial effects” and the liver steatosis (HFD-fed C57BL/6 mice; HFD vs HFD 5-ASA 1500 mg/kg/day in diet) was “reduced”. The VAT weight (HFD-fed C57BL/6 mice; [3]) was “no significant difference”, the adipocyte size (HFD-fed C57BL/6 mice; [3]) was “no significant difference” and the body weight (HFD-fed C57BL/6 mice; [3]) was “no significant difference”. For the same molecule, the “number of crown-like structures in VAT” value (HFD-fed C57BL/6 mice; [3]) was “no significant difference”, the organ weights (HFD-fed C57BL/6 mice; [3]) was “no significant difference” and the fasting glucose (HFD-fed C57BL/6 mice; [4]) was “significant improvements”. The fasting insulin (HFD-fed C57BL/6 mice; [4]) was “significant improvements”, the “glucose tolerance (GTT)” value (HFD-fed C57BL/6 mice; [4]) was “significant improvements” and the “insulin tolerance (ITT)” value (HFD-fed C57BL/6 mice; [4]) was “significant improvements”. The “effects on metabolic disease (GTT, ITT)” value (HFD-fed C57BL/6 mice; lower dose 150 mg/kg/day in HFD, 24 weeks) was “beneficial effects” and the “IFNγ levels from OT-II CD4+ T cells” value [2] was “reduced”.

From patent US20180193361A1, “GUT ANTI-INFLAMMATORY AGENTS FOR REGULATION OF HIGH BLOOD GLUCOSE LEVELS” (UNIVERSITY HEALTH NETWORK, priority 2015, published 2018)
